The EC50 is the concentration that produces a half-maximal response. Broadly, the Ki is the equilibrium dissociation constant of an inhibitor or competing ligand from its target.

Structures are written as SMILES. Entries after “also recorded” stand apart in the source; their conditions may differ.

Consider three compounds from US7538098B2, “19-nor-vitamin D analogs with 1,2 or 3,2 heterocyclic ring” (Wisconsin Alumni Research Foundation, priority 2006, dated 2009).

In experiment [1] the test system is Human promyelocytic leukemia (HL60) cells. Briefly: HL-60 differentiation (nitro blue tetrazolium reduction). Conditions: FIG. 2; for EC50: Homo sapiens, HL-60. Format: cell-based. How it is done:
The study drugs were dissolved in ethanol and the concentrations determined using UV spectrophotometry. Serial dilutions were prepared so that a range of drug concentrations could be tested without changing the final concentration of ethanol (≦0.2%) present in the cell cultures.
Human promyelocytic leukemia (HL60) cells were grown in RPMI-1640 medium containing 10% fetal bovine serum. The cells were incubated at 37° C. in the presence of 5% CO2.
HL60 cells were plated at 1.2×10^5 cells/ml. Eighteen hours after plating, cells in duplicate were treated with drug. Four days later, the cells were harvested and a nitro blue tetrazolium reduction assay was performed (Collins et al., 1979; J. Exp. Med. 149:969-974). The percentage of differentiated cells was determined by counting a total of 200 cells and recording the number that contained intracellular black-blue formazan deposits. Verification of differentiation to monocytic cells was determined by measuring phagocytic activity (data not shown).

The subject of the next experiment is D-deficient CD-1 mice. As to the kind of experiment: Bone calcium mobilization, 1st in vivo study (D-deficient mice). Conditions: for Bone calcium mobilization activity (serum calcium change), overall: single intraperitoneal injection, D-deficient CD-1 mice, FIG. 4. On the procedure:
Female, CD-1 mice (6 weeks old) were purchased from Harlan Sprague-Dawley. Upon arrival, the animals were placed in a room with filtered lighting and fed a purified, D-deficient diet (Suda et al 1970 J. Nutrition) for 17 weeks. […] Serum calcium was measured by diluting with 0.1% lanthum chloride and reading the absorbance using an atomic absorption spectrometer. The change in serum calcium from pre-dose values (baseline) is reported.
(§1) In vivo data were analyzed by one-way ANOVA followed by pairwise comparisons when significant overall differences were detected. Post-hoc analyses includes, Tukey's, Scheffe's, and Fisher's LSD tests. Only differences (p<0.05) that were present in two out of the three post-hoc tests were considered significant.
Calcium mobilization from bone in vitamin D-deficient animals.

In experiment [2] the test system is 24-hydroxylase (24Ohase) gene promoter in ROS 17/2.8 (bone) cells. As to the kind of experiment: In vitro transcription assay (luciferase reporter). Format: cell-based. Conditions: FIG. 3; for EC50: 24-hydroxylase promoter luciferase reporter, read-out: EC50, transcriptional activity in bone cells; for Transcriptional activity, result in words: 24-hydroxylase (CYP-24) promoter luciferase reporter. How it is done: Transcription activity was measured in ROS 17/2.8 (bone) cells that were stably transfected with a 24-hydroxylase (24Ohase) gene promoter upstream of a luciferase reporter gene (Arbour et al., 1998). Cells were given a range of doses. Sixteen hours after dosing the cells were harvested and luciferase activities were measured using a luminometer. RLU=relative luciferase units

Experiment [3] has as its system D-sufficient CD-1 mice. Briefly: Bone calcium mobilization, 3rd in vivo study (routes of administration). Conditions: FIG. 6.
Source text: 6-7 week old female CD-1 mice were purchased from Harlan (Indianapolis, Ind.). The animals were group housed and fed a purified diet containing 0.47% calcium. (Suda et al 1970 J. Nutrition). After a 5-7 day acclimation period, the animals were assigned to treatment groups (n=5/group) and given a single dose of the designated analogues by intraperitoneal injection or oral gavage. Blood was collected for serum calcium concentration analyses at various timepoints following dose delivery. Serum calcium was analyzed as described above.
as §1

Experiment [4] has as its system D-sufficient CD-1 mice. As to the kind of experiment: Bone calcium mobilization, 2nd in vivo study (D-sufficient mice). Conditions: single intraperitoneal injection, two doses, 72 hours; FIG. 5. How it is done:
6-7 week old female CD-1 mice were purchased from Harlan (Indianapolis, Ind.). The animals were group housed and fed a purified diet containing 0.47% calcium. (Suda et al 1970 J. Nutrition). After a 5-7 day acclimation period, the animals were assigned to treatment groups (n=5-6/group) and given a single dose of the designated analogues by intraperitoneal injection. Blood was collected for serum calcium concentration analyses immediately prior to dose administration and 72 hours following dose delivery. Serum calcium were analyzed as described above.
as §1

Experiment [5] has as its target T1, full-length recombinant rat vitamin D receptor (Rattus norvegicus, UniProt P13053).
T1 construct: Full-length recombinant rat receptor was expressed in E. coli BL21 (DE3) Codon Plus RIL cells; histidine tag (C); made in house; host or cells: E. coli BL21 (DE3) Codon Plus RIL
T1 sequence (P13053 1-423): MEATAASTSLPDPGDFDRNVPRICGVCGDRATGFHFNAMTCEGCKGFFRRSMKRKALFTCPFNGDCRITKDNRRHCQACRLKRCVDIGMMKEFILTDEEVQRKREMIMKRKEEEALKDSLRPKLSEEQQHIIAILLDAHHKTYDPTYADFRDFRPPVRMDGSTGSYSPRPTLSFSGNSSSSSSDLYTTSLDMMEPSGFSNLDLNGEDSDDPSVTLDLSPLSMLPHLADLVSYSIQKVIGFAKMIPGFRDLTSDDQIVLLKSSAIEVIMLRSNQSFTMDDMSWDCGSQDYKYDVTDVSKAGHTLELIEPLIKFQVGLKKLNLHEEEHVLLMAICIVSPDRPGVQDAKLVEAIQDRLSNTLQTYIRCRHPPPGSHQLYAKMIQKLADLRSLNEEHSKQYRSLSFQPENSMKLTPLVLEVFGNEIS
As to the kind of experiment: Vitamin D receptor competitive binding with [3H]-1,25(OH)2D3. Conditions: FIG. 1; for Ki: full-length recombinant rat VDR, read-out: Ki, competition with [3H]-1,25(OH)2D3 for binding to the vitamin D receptor. On the procedure: Full-length recombinant rat receptor was expressed in E. coli BL21 (DE3) Codon Plus RIL cells and purified to homogeneity using two different column chromatography systems. The first system was a nickel affinity resin that utilizes the C-terminal histidine tag on this protein. The protein that was eluted from this resin was further purified using ion exchange chromatography (S-Sepharose
Fast Flow). Aliquots of the purified protein were quick frozen in liquid nitrogen and stored at −80° C. until use. For use in binding assays, the protein was diluted in TEDK50 (50 mM Tris, 1.5 mM EDTA, pH7.4, 5 mM DTT, 150 mM KCI) with 0.1% Chaps detergent. The receptor protein and ligand concentration was optimized such that no more than 20% of the added radiolabeled ligand was bound to the receptor.
Radiolabeled and unlabeled ligands were added to 100 mcl of the diluted protein at a final ethanol concentration of ≦10%, mixed and incubated overnight on ice to reach binding equilibrium. The following day, 100 mcl of hydroxylapatite slurry (50%) was added to each tube and mixed at 10-minute intervals for 30 minutes. The hydroxylapaptite was collected by centrifugation and then washed three times with Tris-EDTA buffer (50 mM Tris, 1.5 mM EDTA, pH 7.4) containing 0.5% Titron X-100. After the final wash, the pellets were transferred to scintillation vials containing 4 ml of Biosafe II scintillation cocktail, mixed and placed in a scintillation counter. Total binding was determined from the tubes containing only radiolabeled ligand.

As for `C=C1/C(=C\C=C2/CCC[C@]3(C)[C@@H]([C@H](C)CCCC(C)(C)O)CC[C@@H]23)C[C@@H](O)C[C@@H]1O` [1,25(OH)2D3, 1α,25-dihydroxyvitamin D3, reference compound], the EC50 turned out to be 2 nM in experiment [1] and 0.2 nM in experiment [2]. In addition, in the experiment on D-deficient CD-1 mice, the “Bone calcium mobilization activity (serum calcium change), overall” value is “increased serum calcium levels”.
Take `C[C@H](CCCC(C)(C)O)[C@H]1CC[C@H]2/C(=C/C=C3\C[C@@H](O)C4=CCCO[C@@H]4C3)CCC[C@]12C` [REV-B]: the “Onset of serum calcium increase compared to 1,25(OH)2D3” value in the experiment with D-sufficient CD-1 mice [3] was “significant delay”. For the same compound, the “Serum calcium increase by route of administration” value in the experiment with D-sufficient CD-1 mice [3] (oral gavage vs. intraperitoneal injection) is recorded as “Both routes of administration are effective at causing an increase in serum calcium; however, intraperitoneal injection is more effective than oral gavage”. For the same compound, in experiment [1], the “HL-60 cell differentiation, result in words” value is “lacks activity in cellular differentiation; also recorded: considerably less active than 1,25(OH)2D3” and the EC50 is 1000 nM. Moreover, the “Serum calcium change in D-sufficient mice” value with D-sufficient CD-1 mice [4] was “remarkable in vivo activity of REV-B to raise blood calcium levels”. In experiment [5], the “VDR binding, result in words” value is given as “does not bind to the VDR; also recorded: little binding activity for VDR” and the Ki was > 10000 nM. Besides, the “Calcemic response 48 hours after the dose” value with D-deficient CD-1 mice (D-deficient mice, analog doses exceeding thirty times that of the natural hormone, 48 hours) is reported as “markedly more active”. For the same compound, the “Bone calcium mobilization activity (serum calcium change), overall” value with D-deficient CD-1 mice is “considerable bone calcium mobilization activity”. In addition, the “Transcriptional activity, result in words” value in experiment [2] was “essentially no transcriptional activity; also recorded: lacks activity; also recorded: inactive”.
Regarding `C[C@H](CCCC(C)(C)O)[C@H]1CC[C@H]2/C(=C/C=C3/C[C@@H](O)C4=CCCO[C@@H]4C3)CCC[C@]12C` [REV-A], in experiment [1], the “HL-60 cell differentiation, result in words” value was “considerably less active than 1,25(OH)2D3” and the EC50 worked out at 100 nM. Moreover, in the experiment on D-sufficient CD-1 mice [4], the “Serum calcium change in D-sufficient mice” value is given as “no significant increase in serum calcium”. Moreover, the Ki in experiment [5] is 30 nM. The “VDR binding activity relative to 1,25-(OH)2D3” value in experiment [5] (less active than 1,25-(OH)2D3) is listed as 3 orders of magnitude. In experiment [2], the “Transcriptional activity, result in words” value was “weak transcriptional activity; also recorded: much less transcriptional activity than 1α,25-dihydroxyvitamin D3” and the EC50 was 30 nM.
